Literature values as cited in patent US20210008081A1, “ORAL LIQUID FORMULATIONS OF ABIRATERONE” (LEIUTIS PHARMACEUTICALS PVT, LTD, priority 2018, published 2021).

CC(=O)O[C@H]1CC[C@@]2(C)C(=CC[C@@H]3[C@@H]2CC[C@]2(C)C(c4cccnc4)=CC[C@@H]32)C1 [Abiraterone acetate]
Solubility in organic solvents: sparingly soluble to freely soluble | Solubility in water: practically insoluble | Biopharmaceutical classification system class (low solubility low permeability): class IV | Solubility in aqueous media (over a wide range of pH): practically insoluble
